From article PMC4769319, “Cohesin Releases DNA through Asymmetric ATPase-Driven Ring Opening” (Molecular Cell, 2016)

Biological target: T1, Smc1/Smc3 heterodimer with Scc1-C (cohesin) (Saccharomyces cerevisiae, UniProt P32908+P47037, P32908:L1129V, form not given)
T1 construct: N-terminal tags; Sf9 insect cells; fluorescently labelled for MST; with Sister chromatid cohesion protein 1
T1 sequence (P32908 1-1225 L1129V): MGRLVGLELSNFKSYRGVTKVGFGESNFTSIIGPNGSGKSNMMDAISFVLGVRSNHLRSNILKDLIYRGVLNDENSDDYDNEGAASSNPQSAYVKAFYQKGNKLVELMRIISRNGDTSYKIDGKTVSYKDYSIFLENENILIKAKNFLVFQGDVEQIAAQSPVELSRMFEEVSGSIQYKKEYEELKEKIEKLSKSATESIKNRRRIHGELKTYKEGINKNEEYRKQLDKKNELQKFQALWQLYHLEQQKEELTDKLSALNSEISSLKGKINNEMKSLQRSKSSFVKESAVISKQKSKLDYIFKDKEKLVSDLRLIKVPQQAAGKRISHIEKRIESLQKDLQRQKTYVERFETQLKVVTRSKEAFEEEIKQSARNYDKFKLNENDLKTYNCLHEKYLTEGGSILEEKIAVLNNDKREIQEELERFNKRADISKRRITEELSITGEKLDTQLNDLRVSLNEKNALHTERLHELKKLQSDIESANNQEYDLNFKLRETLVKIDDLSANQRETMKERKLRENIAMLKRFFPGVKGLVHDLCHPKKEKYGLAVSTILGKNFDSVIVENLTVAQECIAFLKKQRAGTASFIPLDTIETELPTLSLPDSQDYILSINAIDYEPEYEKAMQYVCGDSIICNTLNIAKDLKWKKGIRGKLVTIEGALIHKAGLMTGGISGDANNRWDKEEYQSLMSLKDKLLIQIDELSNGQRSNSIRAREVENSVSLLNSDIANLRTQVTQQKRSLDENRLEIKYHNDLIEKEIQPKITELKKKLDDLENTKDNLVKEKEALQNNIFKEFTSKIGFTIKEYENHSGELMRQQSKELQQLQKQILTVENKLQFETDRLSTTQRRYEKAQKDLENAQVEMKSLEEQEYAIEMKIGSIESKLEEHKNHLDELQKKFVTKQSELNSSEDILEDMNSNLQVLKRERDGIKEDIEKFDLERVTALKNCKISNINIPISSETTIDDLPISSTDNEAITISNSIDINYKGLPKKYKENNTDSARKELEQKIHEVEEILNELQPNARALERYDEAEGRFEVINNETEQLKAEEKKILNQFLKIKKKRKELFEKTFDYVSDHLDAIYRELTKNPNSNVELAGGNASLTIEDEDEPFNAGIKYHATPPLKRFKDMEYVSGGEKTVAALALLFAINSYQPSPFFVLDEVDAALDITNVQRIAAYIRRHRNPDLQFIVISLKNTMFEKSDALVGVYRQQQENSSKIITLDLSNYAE
T1 sequence (P47037 1-1230): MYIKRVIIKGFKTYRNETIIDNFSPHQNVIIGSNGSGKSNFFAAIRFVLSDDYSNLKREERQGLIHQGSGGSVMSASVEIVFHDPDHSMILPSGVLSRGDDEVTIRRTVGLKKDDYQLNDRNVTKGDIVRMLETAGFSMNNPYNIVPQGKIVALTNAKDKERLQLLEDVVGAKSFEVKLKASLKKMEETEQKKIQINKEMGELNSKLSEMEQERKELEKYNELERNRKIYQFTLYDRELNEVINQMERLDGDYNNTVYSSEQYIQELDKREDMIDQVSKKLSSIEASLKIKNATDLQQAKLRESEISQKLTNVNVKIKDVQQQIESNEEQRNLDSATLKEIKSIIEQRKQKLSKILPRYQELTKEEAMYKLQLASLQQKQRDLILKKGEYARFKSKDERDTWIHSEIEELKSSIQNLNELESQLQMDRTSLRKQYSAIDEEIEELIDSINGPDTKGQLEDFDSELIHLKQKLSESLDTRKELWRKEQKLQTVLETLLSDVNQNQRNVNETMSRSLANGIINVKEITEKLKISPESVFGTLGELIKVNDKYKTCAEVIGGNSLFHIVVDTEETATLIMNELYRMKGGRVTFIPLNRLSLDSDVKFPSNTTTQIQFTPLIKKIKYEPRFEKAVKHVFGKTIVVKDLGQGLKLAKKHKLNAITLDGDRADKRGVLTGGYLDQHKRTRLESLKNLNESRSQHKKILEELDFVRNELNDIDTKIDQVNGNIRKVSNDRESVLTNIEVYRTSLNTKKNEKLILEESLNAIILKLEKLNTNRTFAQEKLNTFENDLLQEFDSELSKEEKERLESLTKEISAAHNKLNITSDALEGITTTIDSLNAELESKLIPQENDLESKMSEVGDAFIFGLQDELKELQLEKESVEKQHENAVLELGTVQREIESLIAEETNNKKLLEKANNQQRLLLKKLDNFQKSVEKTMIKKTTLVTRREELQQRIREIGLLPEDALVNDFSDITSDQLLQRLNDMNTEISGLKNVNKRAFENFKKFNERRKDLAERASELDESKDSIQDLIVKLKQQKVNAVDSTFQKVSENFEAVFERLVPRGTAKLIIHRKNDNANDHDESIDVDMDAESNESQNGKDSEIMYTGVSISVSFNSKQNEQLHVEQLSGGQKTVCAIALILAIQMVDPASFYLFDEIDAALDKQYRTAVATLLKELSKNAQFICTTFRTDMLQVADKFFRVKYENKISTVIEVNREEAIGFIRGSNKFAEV
T1 sequence (Q12158 1-566 partner): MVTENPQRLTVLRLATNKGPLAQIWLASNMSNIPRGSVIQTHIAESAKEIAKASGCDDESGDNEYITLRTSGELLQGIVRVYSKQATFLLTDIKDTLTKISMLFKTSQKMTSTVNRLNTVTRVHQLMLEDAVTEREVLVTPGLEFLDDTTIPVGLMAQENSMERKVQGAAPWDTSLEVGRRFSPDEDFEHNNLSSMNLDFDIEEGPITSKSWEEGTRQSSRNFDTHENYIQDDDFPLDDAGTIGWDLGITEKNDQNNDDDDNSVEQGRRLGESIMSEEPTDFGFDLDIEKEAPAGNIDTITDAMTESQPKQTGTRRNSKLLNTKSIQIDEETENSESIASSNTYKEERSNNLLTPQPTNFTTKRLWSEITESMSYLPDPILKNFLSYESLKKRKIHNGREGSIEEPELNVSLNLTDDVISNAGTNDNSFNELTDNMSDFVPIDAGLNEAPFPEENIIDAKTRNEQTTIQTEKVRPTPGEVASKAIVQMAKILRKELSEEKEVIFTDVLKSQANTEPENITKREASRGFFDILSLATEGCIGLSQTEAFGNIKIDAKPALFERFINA
Assay: microscale thermophoresis
Format: binding
Settings: fluorescently labelled protein; Smc1 co-purified with Scc1-C, plus Smc3; read-out: affinity
From the text: microscale thermophoresis on Smc1/Smc3 heterodimer with Scc1-C (cohesin) | Smc1 L1129V, D1164E and E1158Q mutants all had wild-type-like affinity to both ATP and ADP | wild-type and mutant cohesin complexes appear to have similar affinities to ADP

Nc1ncnc2c1ncn2[C@@H]1O[C@H](COP(=O)(O)OP(=O)(O)O)[C@@H](O)[C@H]1O [ADP]
Kd: > 1000 µM

Nc1ncnc2c1ncn2[C@@H]1O[C@H](COP(=O)(O)OP(=O)(O)OP(=O)(O)O)[C@@H](O)[C@H]1O [ATP]
Kd: 667 ± 211 µM
